Legend:
[1] = Liquid
[2] = refractive index (Na D-line) (dimensionless); conditions: 293.1 K; 101.33 kPa; Liquid; Standard Abbe refractometry

CC(C)COC(=O)C1CCCCC1C(=O)OCC(C)C (stereo unspecified) [diisobutyl hexahydrophthalate]
[1]
Conditions	vapor or sublimation pressure [kPa]
434.4 K	0.732
448.2 K	1.539
463.3 K	2.912
478.7 K	4.813
486.4 K	6.342
491.5 K	7.672
500.3 K	10.2
506.6 K	12.5
509.6 K	13.99
515 K	16.31
519.5 K	18.67
524.1 K	21.3
527.8 K	23.69
534.8 K	28.61
538.2 K	30.94

Conditions	refractive index
[2]	1.453

— the NIST ThermoML archive (doi:10.1016/j.fluid.2005.03.019)
